Values of other authors, collected in patent US20210330614A1, “PROCESS FOR MANUFACTURING PHENYLEPHRINE RESINATE PARTICLES; PHENYLEPHRINE RESINATE PARTICLES; AND USE OF PHENYLEPHRINE RESINATE PARTICLES IN PHARMACEUTICAL FORMULATIONS” (Johnson & Johnson Consumer Inc., priority 2014, published 2021).

Assays:
[1] = therapeutic dose
[2] = 30 mg dose administered orally over eight hours

| Compound | excreted unchanged in the urine, % of dose [1] | metabolized to m-hydroxy-phenylglycol-sulfate, % of the dose [2] | metabolized to m-hydroxymandelic acid, % of the dose [2] | metabolized to phenylephrine-glucuronide, % of the dose [2] | metabolized to phenylephrine-sulfate, % of the dose [2] |
| --- | --- | --- | --- | --- | --- |
| CC(=O)Nc1ccc(O)cc1 [acetaminophen, Acetaminophen] | Less than 9% |  |  |  |  |
| CNC[C@H](O)c1cccc(O)c1.Cl [phenylephrine, (R)-1-(3-hydroxyphenyl)-2-methylaminoethanol] |  | 6% | 30% | 12% | 47% |
